Assay results taken from ChEMBL document CHEMBL1157850, “Synthesis, spectral characterization and bioassay of 3,3'-(1,4-phenylene)-bis[2-alkoxycarbonyl-alkyl)-2-thio-benzoxa-phosphinines]” (Eur J Med Chem, 2010).
In brackets after ≈: the same amount, converted by molar mass. Activity calls are given as the source filed them. No cut-off for these calls is given here.

Columns and labels:
Rattus norvegicus [1] = species on record: Rattus norvegicus; assay: Antioxidant activity in Wistar albino rat assessed as reduced glutathione activity; assay type: functional, organism-based
Rattus norvegicus [2] = species on record: Rattus norvegicus; assay: Antioxidant activity in Wistar albino rat assessed as inhibition of catalase activity; assay type: functional, organism-based
Rattus norvegicus [3] = species on record: Rattus norvegicus; assay: Antioxidant activity in Wistar albino rat assessed as catalase level; assay type: functional
Rattus norvegicus [4] = species on record: Rattus norvegicus; assay: Antioxidant activity in Wistar albino rat assessed as inhibition of superoxide dismutase activity; assay type: functional, organism-based
Rattus norvegicus [5] = species on record: Rattus norvegicus; assay: Antioxidant activity in Wistar albino rat assessed as superoxide dismutase level; assay type: functional
Rattus norvegicus [6] = species on record: Rattus norvegicus; assay: Antioxidant activity in Wistar albino rat assessed as lipid peroxidation level; assay type: functional, organism-based
Rattus norvegicus [7] = species on record: Rattus norvegicus; assay: Antioxidant activity in Wistar albino rat assessed as reduced glutathione level; assay type: functional
Rattus norvegicus [8] = species on record: Rattus norvegicus; assay: Antioxidant activity in Wistar albino rat assessed as inhibition of lipid peroxidation; assay type: functional, organism-based
[9] = Rattus norvegicus, Wistar albino, read-out: EC50

Compound | EC50 (Rattus norvegicus [1]; [9]) [µg/mL] | EC50 (Rattus norvegicus [2]; [9]) [µg/mL] | EC50 (Rattus norvegicus [4]; [9]) [µg/mL] | EC50 (Rattus norvegicus [8]; [9]) [µg/mL] | EC50 (Rattus norvegicus [1]) [µg/mL] | EC50 (Rattus norvegicus [2]) [µg/mL] | EC50 (Rattus norvegicus [4]) [µg/mL] | EC50 (Rattus norvegicus [8]) [µg/mL] | Activity (Rattus norvegicus [3]) [µg/mL] | Activity (Rattus norvegicus [5]) | Activity (Rattus norvegicus [6]) [µg/mL] | Activity (Rattus norvegicus [7]) [µg/mL]
CCCC(NP1(=S)Oc2ccccc2CN1c1ccc(N2Cc3ccccc3OP2(=S)NC(CCC)C(=O)OCC)cc1)C(=O)OCC (centres undefined) | 2.5 (≈ 3.42 µM) | 3.23 (≈ 4.42 µM) | 2.33 (≈ 3.19 µM) | 2.59 (≈ 3.54 µM) |  |  |  |  | 273.32 | 28.55 µg/mL | 70.2 | 4.23
COC(=O)C(NP1(=S)Oc2ccccc2CN1c1ccc(N2Cc3ccccc3OP2(=S)NC(C(=O)OC)C(C)C)cc1)C(C)C (centres undefined) | 3.05 (≈ 4.34 µM) | 4.89 (≈ 6.96 µM) | 3.45 (≈ 4.91 µM) | 4.1 (≈ 5.83 µM) |  |  |  |  | 277.59 | 27.86 µg/mL | 72.3 | 4.73
CCOC(=O)C1c2ccccc2CN1P1(=S)Oc2ccccc2CN1c1ccc(N2Cc3ccccc3OP2(=S)N2Cc3ccccc3C2C(=O)OCC)cc1 (centres undefined) | 1.49 (≈ 1.81 µM) | 1.68 (≈ 2.04 µM) | 1.55 (≈ 1.88 µM) | 1.56 (≈ 1.9 µM) |  |  |  |  | 285.58 | 30.59 µg/mL | 75.7 | 5.77
CCCC(NP1(=S)Oc2ccccc2CN1c1ccc(N2Cc3ccccc3OP2(=S)NC(CCC)C(=O)OC)cc1)C(=O)OC (centres undefined) | 2.66 (≈ 3.78 µM) | 3.98 (≈ 5.66 µM) | 2.31 (≈ 3.29 µM) | 2.91 (≈ 4.14 µM) |  |  |  |  | 265.43 | 27.8 µg/mL | 68.2 | 5.02
COC(=O)C(Cc1c[nH]c2ccccc12)NP1(=S)Oc2ccccc2CN1c1ccc(N2Cc3ccccc3OP2(=S)NC(Cc2c[nH]c3ccccc23)C(=O)OC)cc1 (centres undefined) | 1.45 (≈ 1.65 µM) | 1.98 (≈ 2.26 µM) | 1.39 (≈ 1.59 µM) | 1.82 (≈ 2.08 µM) |  |  |  |  | 280.48 | 30.29 µg/mL | 76.2 | 5.84
CCOC(=O)C(C)NP1(=S)Oc2ccccc2CN1c1ccc(N2Cc3ccccc3OP2(=S)NC(C)C(=O)OCC)cc1 (centres undefined) | 2.68 (≈ 3.97 µM) | 3.38 (≈ 5.01 µM) | 2.98 (≈ 4.42 µM) | 3.1 (≈ 4.59 µM) |  |  |  |  | 270.32 | 28.14 µg/mL | 68.9 | 4.56
COC(=O)C(C)NP1(=S)Oc2ccccc2CN1c1ccc(N2Cc3ccccc3OP2(=S)NC(C)C(=O)OC)cc1 (centres undefined) | 3.5 (≈ 5.41 µM) | 5.28 (≈ 8.16 µM) | 3.56 (≈ 5.51 µM) | 4.25 (≈ 6.57 µM) |  |  |  |  | 271.27 | 27.02 µg/mL | 72.2 | 3.56
COC(=O)C(Cc1ccccc1)NP1(=S)Oc2ccccc2CN1c1ccc(N2Cc3ccccc3OP2(=S)NC(Cc2ccccc2)C(=O)OC)cc1 (centres undefined) | 2.05 (≈ 2.57 µM) | 2.2 (≈ 2.75 µM) | 1.98 (≈ 2.48 µM) | 2.1 (≈ 2.63 µM) |  |  |  |  | 279.43 | 29.42 µg/mL | 72.9 | 4.21
VITAMIN E [listing 1 of 2 here] |  |  |  |  |  |  |  |  | 403 | 32.3 µg/mL | 82.8 | 43.6

Second part, led by results:

EC50 (Rattus norvegicus [1]; [9]) [µg/mL] | EC50 (Rattus norvegicus [2]; [9]) [µg/mL] | EC50 (Rattus norvegicus [4]; [9]) [µg/mL] | EC50 (Rattus norvegicus [8]; [9]) [µg/mL] | EC50 (Rattus norvegicus [1]) [µg/mL] | EC50 (Rattus norvegicus [2]) [µg/mL] | EC50 (Rattus norvegicus [4]) [µg/mL] | EC50 (Rattus norvegicus [8]) [µg/mL] | Compound | Activity (Rattus norvegicus [3]) [µg/mL] | Activity (Rattus norvegicus [5]) | Activity (Rattus norvegicus [6]) [µg/mL] | Activity (Rattus norvegicus [7]) [µg/mL]
5.42 (≈ 16.9 µM) | 6.05 (≈ 18.9 µM) | 4.58 (≈ 14.3 µM) | 5.02 (≈ 15.7 µM) |  |  |  |  | Oc1ccccc1CNc1ccc(NCc2ccccc2O)cc1 | 262.55 | 26.27 µg/mL | 70.7 | 4.8
0.98 (≈ 5.56 µM) | 1.37 (≈ 7.78 µM) | 0.99 (≈ 5.62 µM) | 1.02 (≈ 5.79 µM) |  |  |  |  | O=C1O[C@H]([C@@H](O)CO)C(O)=C1O [ASCORBIC ACID] | 385.46 | inactive | 88.1 | 31.34
 |  |  |  | 0.99 | 1.48 | 1.03 | 1.22 | VITAMIN E [listing 2 of 2 here] |  |  |  | 
1.45 (≈ 1.86 µM) | 1.75 (≈ 2.25 µM) | 1.4 (≈ 1.8 µM) | 1.56 (≈ 2 µM) |  |  |  |  | COC(=O)C(Cc1c[nH]cn1)NP1(=S)Oc2ccccc2CN1c1ccc(N2Cc3ccccc3OP2(=S)NC(Cc2c[nH]cn2)C(=O)OC)cc1 (centres undefined) | 282.28 | 31.55 µg/mL | 77.2 | 3.66
2.15 (≈ 2.69 µM) | 2.98 (≈ 3.73 µM) | 2.42 (≈ 3.03 µM) | 2.57 (≈ 3.22 µM) |  |  |  |  | CCOC(=O)C(NP1(=S)Oc2ccccc2CN1c1ccc(N2Cc3ccccc3OP2(=S)NC(C(=O)OCC)c2ccccc2)cc1)c1ccccc1 (centres undefined) | 270.32 | 29.31 µg/mL | 70.5 | 4.12
